Measured values: patent US7615534B2, “Antimicrobial peptides and use thereof” (Toagosei Co., Ltd, priority 2005, dated 2009)
Where no end group is shown, it is not given here.

Test system: Staphylococcus aureus IFO 12732
Format: cell-based
Details: for Antimicrobial Activities (MIC) S. aureus (24 hours later): 37° C., turbidity 24 hours later, diluents approximately 50 μM to approximately 0.39 μM, approximately 1×10^6 cells/mL
Experimental: Regarding the antimicrobial peptide in each of samples 1 to 14, the antimicrobial activities (minimum inhibitory concentration: MIC) with respect to gram-positive bacteria (Staphylococcus aureus IFO 12732) were determined, as described below, by a liquid medium dilution technique using a 96-well microplate. Staphylococcus aureus bacteria are inoculated from a preservation medium to an agar plate medium (“Muller Hinton Agar” manufactured by DIFCO), and thereafter stationary cultured for 18 hours at 37° C. Cultured bacteria were scratched twice using a disposable loop, and gathered bacteria were suspended in 5 mL of physiological saline. The OD660 value of the bacterial suspension derived from diluting the suspension 10 times with physiological saline was determined. The bacterial suspension used in the following tests was prepared by utilizing physiological saline, such that its OD660 value was 0.1 (therefore, bacteria concentration: approximately 2×10^7 cells/mL).
Each peptide sample derived by the above-described method was dissolved with sterile distilled water, which served as a carrier in the present example, to prepare a drug of predetermined concentration. More specifically, an appropriate amount of peptide sample were added into an Eppendorf (registered trademark) tube with an appropriate capacity, and such peptide sample were dissolved with sterile distilled water to prepare 2 mM of drug (peptide solution). The derived drug was appropriately diluted, and each diluent of approximately 50 μM to approximately 0.39 μM was prepared. Thereafter, each diluent was respectively introduced into the well of a polystyrene 96-round-bottom-well microplate prepared in advance. Next, 5 μL of the bacterial suspension having 0.1 OD660 was added (test bacteria quantity: approximately 1×10^6 cells/mL) respectively to each well containing the diluent of each concentration. The microplate was then incubated in an incubator at 37° C., and the presence of bacteria was evaluated based on the turbidity 24 hours later. The minimum drug concentration (peptide concentration), in which an increased in turbidity caused by bacteria was not detected at the time of measurement, was defined as MIC (unit: μM) in the present example.

Molecule | Antimicrobial Activities (MIC) S. aureus (24 hours later) | antimicrobial activity (in words) (summary of Table 2)
RELLTAVRIIKILYQ-NH2 [Sample 12, RELLTAVRIIKILYQ] | 25 µM | –
VRFIKFLYQ-NH2 [Sample 3, VRFIKFLYQ] | 25 µM | –
CC[C@H](C)[C@H](NC(=O)[C@H](CC(C)C)NC(=O)[C@H](CCCNC(=N)N)NC(=O)[C@@H](NC(=O)[C@@H](NC(=O)[C@H](CCCNC(=N)N)NC(=O)[C@@H](NC(=O)[C@H](CC(C)C)NC(=O)[C@H](CCC(=O)O)NC(=O)[C@@H](N)CCC(=O)O)[C@@H](C)CC)[C@@H](C)O)C(C)C)C(=O)N[C@@H](CCCCN)C(=O)N[C@@H](CC(C)C)C(=O)N[C@@H](CC(C)C)C(=O)N[C@@H](Cc1ccc(O)cc1)C(=O)N[C@@H](CCC(N)=O)C(N)=O [Sample 10, EELIRTVRLIKLLYQ] | 25 µM | –
RLIKLLYQ-NH2 [Sample 6, RLIKLLYQ] | 25 µM | –
KTKEGVKT (KTKEGVKT-NH2) [Comparative Sample 1, reference compound] | No Activity | no antimicrobial activity was detected
VRLIKFLYQ-NH2 [Sample 2, VRLIKFLYQ] | 12.5 µM | –
ENLLKAIRLIKFLYQ-NH2 [Sample 14, ENLLKAIRLIKFLYQ] | 6.25 µM | –
CC[C@H](C)[C@H](NC(=O)[C@H](CC(C)C)NC(=O)[C@H](CCCNC(=N)N)NC(=O)[C@@H](N)C(C)C)C(=O)N[C@@H](CCCCN)C(=O)N[C@@H](CC(C)C)C(=O)N[C@@H](CC(C)C)C(=O)N[C@@H](Cc1ccc(O)cc1)C(=O)N[C@@H](CCC(N)=O)C(N)=O [Sample 1, VRLLKLLYQ] | 50 µM | –
EELLKAVRLIKLLYQ-NH2 [Sample 8, EELLKAVRLIKLLYQ] | 25 µM | –
EDLLRTVRLIKVLYQ-NH2 [Sample 13, EDLLRTVRLIKVLYQ] | 50 µM | –
IRLIKFLYQ-NH2 [Sample 5, IRLIKFLYQ] | 25 µM | –
RLIKLLYQRLIKLLYQ-NH2 [Sample 7, RLIKLLYQ RLIKLLYQ] | 6.25 µM | –
EDLLKAVRLIKFLYQ-NH2 [Sample 9, EDLLKAVRLIKFLYQ] | 25 µM | –
RRAAQAVRLIKLLYQ-NH2 [Sample 11, RRAAQAVRLIKLLYQ] | 6.25 µM | –
